In patent US11360080B2, “AhR-ROR-γt complex as a biomarker and therapeutic target for autoimmune disease and IL-17A-associated disease” (NATIONAL HEALTH RESEARCH INSTITUTES, priority 2018, dated 2022):
Where a name gives a salt, the structure may show the parent alone.

What was measured:
HGK (MAP4K4) = target: T1, HGK (MAP4K4) (Homo sapiens, UniProt O95819); experiment: In vitro kinase assay, recombinant kinase domain, MBP as substrate; format: biochemical
T1 construct: Recombinant proteins of kinase domains of various MAP4Ks were used
Procedure: (§1) GLK kinase activity was determined by measuring the rate of ADP production in the in vitro kinase reaction using ADP-GLO™ Kinase Assay kit. For the kinase reaction, recombinant proteins of the GLK kinase-domain (1 μg) were incubated with recombinant proteins of kinase-dead PKCθ (K409W; 0.15 μg) plus ATP (0.1 mM) or myelin basic protein (MBP) plus ATP (0.1 mM) in kinase buffer (40 mM Tris-HCl, pH7.5.20 mM MgCl2, 0.1 mg/ml BSA, 10 mM DTT and 0.1 mM Na3VO4) for 30 min at room temperature. We studied whether GLK inhibitors also suppress cancer cell migration. […] Moreover, both C1 (verteporfin) and C2 (alexidine dihydrochloride) treatments suppressed tumor growth in the xenograft mouse model using TC-1 lung cancer cells (FIG. 15). To study whether GLK deficiency results in a reduction of lung cancer metastasis, we used a metastatic Lewis lung carcinoma (LLC) mouse model by tail vein injection of luciferase-expressing LLC (LLC/luc) cells. We identified two GLK inhibitors (verteporfin and alexidine dihydrochloride)) using cell-based assays and in vitro kinase assays. […] The dimerization of Flag-tagged GLK protein and GFP-GLK fusion protein was indeed blocked by the C1 (verteporfin) treatment (FIG. 16C). We treated the LLC/luc cells-containing mice with the GLK inhibitor C1 (verteporfin) or C2 (alexidine dihydrochloride) by intravenous injection every 3 days for 30 days (FIG. 16D). The luciferase activity of LLC/luc cells in the mice was detected by In Vivo Imaging System. The excised lungs were weighed and subjected to H&E staining. The luciferase activity of LLC/luc cells in the lung of injected mice was reduced by the treatment of C1 (verteporfin) or C2 (alexidine dihydrochloride) (FIGS. 16E-F). […] Moreover, the interaction between GLK and IQGAP1 in the lung tissues were inhibited by the treatment of C1 (verteporfin) or C2 (alexidine dihydrochloride) (FIG. 16H, upper panel), and IQGAP1 phosphorylation was in the lung tissues were inhibited (FIG. 16H, lower panel). […] Inhibition of kinase activity of GLK (MAP4K3) or other MAP4Ks was determined by in vitro kinase assays using myelin basic protein (MBP) as a substrate. Recombinant proteins of kinase domains of various MAP4Ks were used. C1, verteporfin: C2, alexidine dihydrochloride.

HPK1 (MAP4K1) = target: T2, HPK1 (MAP4K1) (Homo sapiens, UniProt Q92918); experiment: as above; format: biochemical
T2 construct: Recombinant proteins of kinase domains of various MAP4Ks were used
Procedure: as §1

KHS (MAP4K5) = target: T3, KHS (MAP4K5) (Homo sapiens, UniProt Q9Y4K4); experiment: as above; format: biochemical
T3 construct: Recombinant proteins of kinase domains of various MAP4Ks were used
Procedure: as §1

human glioma U87 cells = experiment: Transwell migration assay; format: cell-based; conditions: C1 2 uM or 5 uM; C2 2 uM or uM
Procedure: (§2) Transwell migration assays of human glioma U87 cells, human pancreatic cancer Panc-1 cells, mouse lung cancer LL2 cells, or human hepatoma Huh-7 cells treated with the GLK inhibitor C1 (verteporfin) (a; 2 uM or 5 uM) or C2 (alexidine dihydrochloride) (b; 2 uM or uM). C1 denotes verteporfin; C2 denotes alexidine dihydrochloride.
(§3) For primary cell migration assays, 2×10^5 cells in […] of IMDM with 10% FBS were seeded into the upper chamber of transwells (8 μm pore size, Corning), and the lower chamber was loaded with […] of IMDM with 20% FBS. For cancer cell migration assays, 5×10^4 cells in 200 μl of RPMI 1640 with 10% FBS were seeded into the upper chamber of transwells (8 μm pore size, Corning), and the lower chamber was loaded with […] of RPMI 1640 with 10% FBS. After incubation at 37° C. for 24 h, cells migrating to the lower chamber were imaged and counted by bright-field microscopy following fixation with absolute methanol and staining with 1% crystal violet solution.

[1] = system: human hepatoma Huh-7 cells; experiment: Transwell migration assay; format: cell-based; conditions: C1 2 uM or 5 uM; C2 2 uM or uM
Procedure: as §2, §3

[2] = system: human pancreatic cancer Panc-1 cells; experiment: Transwell migration assay; format: cell-based; conditions: C1 2 uM or 5 uM; C2 2 uM or uM
Procedure: as §2, §3

[3] = system: mouse lung cancer LL2 cells; experiment: Transwell migration assay; format: cell-based; conditions: C1 2 uM or 5 uM; C2 2 uM or uM
Procedure: as §2, §3

TC-1 lung cancer cells = experiment: TC-1 lung cancer xenograft model in wild-type mice; format: in vivo, mouse; conditions: i.v. C1 10 uM, C2 17 uM every 3 days for 15 days
Procedure: (A) Murine TC-1 lung cancer cells were subcutaneously inoculated into the right flank of wild-type mice for establishing a TC-1 xenograft model. TC-1 cells inoculated mice were intravenously injected with PBS, C1 (verteporfin) (10 uM), or C2 (alexidine dihydrochloride) (17 uM) every 3 days for 15 days. (B) Photographs of excised TC-1 lung cancers after receiving PBS, C1 (verteporfin) (10 uM), or C2 (17 uM) treatment. (C) The growth (mean tumor volume) of tumor was measured for 15 days. The TC-1 tumor size progression as a function of time post-administration with C1 or C2. N.D., not detectable. C1 denotes verteporfin; C2 denotes alexidine dihydrochloride.

[4] = system: in vitro differentiated Th17 cells; experiment: IL-17A production of in vitro differentiated Th17 cells, flow cytometry; format: cell-based, mouse; conditions: PMA plus ionomycin, 1 or 5 μM for 30 min
Procedure: (A) Flow cytometry of IL-17A-producing CD4^+ T cells. Splenic T cells were co-treated with verteporfin (C1) (1 or 5 μM) during Th17 differentiation in vitro. (B) Flow cytometry of IL-17A-producing CD4^+ T cells. Murine in vitro differentiated Th17 cells were stimulated with PMA plus ionomycin and co-treated with verteporfin (C1) (1 or 5 μM) for 30 min. (C) Flow cytometry of Foxp3-producing […] T cells. Splenic T cells were co-treated with verteporfin (C1) (5 μM) during Treg differentiation in vitro. (D) Flow cytometry of Foxp3-producing CD4^+ T cells, which were differentiated from CD4^+ T cells of wild-type or Lck-GLK transgenic mice.

T3 sequence (Q9Y4K4 20-277 limits assumed, species assumed): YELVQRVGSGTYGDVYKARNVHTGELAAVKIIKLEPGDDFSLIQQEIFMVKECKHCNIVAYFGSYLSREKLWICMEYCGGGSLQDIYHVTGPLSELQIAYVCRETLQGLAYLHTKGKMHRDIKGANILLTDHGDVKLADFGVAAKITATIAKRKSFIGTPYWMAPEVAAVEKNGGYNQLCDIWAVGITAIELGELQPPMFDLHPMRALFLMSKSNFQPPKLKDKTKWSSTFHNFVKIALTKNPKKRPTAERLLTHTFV
T1 sequence (O95819 25-289 limits assumed, species assumed): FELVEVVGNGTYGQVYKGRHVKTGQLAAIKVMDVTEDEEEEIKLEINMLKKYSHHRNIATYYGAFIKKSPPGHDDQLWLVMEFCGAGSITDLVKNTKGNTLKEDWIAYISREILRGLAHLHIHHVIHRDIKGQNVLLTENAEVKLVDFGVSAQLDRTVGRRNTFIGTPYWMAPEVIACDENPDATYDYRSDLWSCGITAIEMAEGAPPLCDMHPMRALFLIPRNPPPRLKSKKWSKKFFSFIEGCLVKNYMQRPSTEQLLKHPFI
T2 sequence (Q92918 17-274 limits assumed, species assumed): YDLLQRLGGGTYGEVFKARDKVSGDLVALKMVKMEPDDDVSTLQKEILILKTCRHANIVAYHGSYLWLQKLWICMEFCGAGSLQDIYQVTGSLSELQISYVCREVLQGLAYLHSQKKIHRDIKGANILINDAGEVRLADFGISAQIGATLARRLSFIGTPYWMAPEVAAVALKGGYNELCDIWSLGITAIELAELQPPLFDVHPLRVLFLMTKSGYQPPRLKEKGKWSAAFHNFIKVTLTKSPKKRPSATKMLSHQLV

| Structure (SMILES) | IC50 (HGK (MAP4K4)) | IC50 (HPK1 (MAP4K1)) | IC50 (KHS (MAP4K5)) | migration of glioma cells (human glioma U87 cells) | migration of hepatoma cells [1] | migration of pancreatic cancer cells [2] | migration of lung cancer cells [3] | tumor growth (mean tumor volume) (TC-1 lung cancer cells) | IL-17A production from in vitro differentiated Th17 cells [4] |
| --- | --- | --- | --- | --- | --- | --- | --- | --- | --- |
| CCCCC(CC)CNC(=N)NC(=N)NCCCCCCNC(=N)NC(=N)NCC(CC)CCCC (centres unmarked) [C2, alexidine dihydrochloride] | 21.8 nM | 6.14 nM | 18.3 nM | inhibited | inhibited | inhibited | inhibited | suppressed | – |
| C=Cc1c(C)c2cc3nc(cc4[nH]c(cc5nc(cc1[nH]2)C(C)=C5CCC(=O)O)c(CCC(=O)OC)c4C)[C@@]1(C)C3=CC=C(C(=O)OC)[C@H]1C(=O)OC [C1, verteporfin] | 4.92 nM | 7.91 nM | 43.9 nM | inhibited | inhibited | inhibited | inhibited | suppressed | inhibited |
